Paper PMC9848300, “Discovery of novel enasidenib analogues targeting inhibition of mutant isocitrate dehydrogenase 2 as antileukaemic agents” (Journal of Enzyme Inhibition and Medicinal Chemistry, 2023)

Legend:
CCRF-CEM = test: NCI 60 antitumor screening (single dose / five doses); type: cell-based; details: Homo sapiens; for inhibition at 10 µM: CCRF-CEM (leukaemia), single dose 10 μM, read-out: Growth inhibition percentage (GI %)
K-562 = test: as above; type: cell-based; details: Homo sapiens, K562; for inhibition at 10 µM: K-562 (leukaemia), single dose 10 μM, read-out: Growth inhibition percentage (GI %)
MOLT-4 = test: as above; type: cell-based; details: Homo sapiens; for inhibition at 10 µM: MOLT-4 (leukaemia), single dose 10 μM, read-out: Growth inhibition percentage (GI %)
SR = test: as above; type: cell-based; details: Homo sapiens; for inhibition at 10 µM: SR (leukaemia), single dose 10 μM, read-out: Growth inhibition percentage (GI %)
EKVX = test: as above; type: cell-based; details: Homo sapiens; for inhibition at 10 µM: EKVX (non-small cell lung cancer), single dose 10 μM, read-out: Growth inhibition percentage (GI %)
HOP-92 = test: as above; type: cell-based; details: Homo sapiens; for inhibition at 10 µM: HOP-92 (non-small cell lung cancer), single dose 10 μM, read-out: Growth inhibition percentage (GI %)
NCI-H460 = test: NCI 60 antitumor screening (single dose); type: cell-based; details: Homo sapiens; NCI-H460 (non-small cell lung cancer), single dose 10 μM; read-out: Growth inhibition percentage (GI %)
Method in brief: (§1)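 Single-dose NCI protocol, 10 μM, triplicate. Readout G%; GI% = 100 − G%.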

OVCAR-3 = test: NCI 60 antitumor screening (single dose); type: cell-based; details: Homo sapiens; OVCAR-3 (ovarian cancer), single dose 10 μM; read-out: Growth inhibition percentage (GI %)
Method in brief: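 Values are GI% (100 − G%) from the NCI 60-line single-dose screen, compound at 10 μM.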

SF-268 = test: NCI 60 antitumor screening (single dose); type: cell-based; details: Homo sapiens; SF-268 (CNS cancer), single dose 10 μM; read-out: Growth inhibition percentage (GI %)
Method in brief: as §1

COLO 205 = test: NCI 60 antitumor screening (single dose / five doses); type: cell-based; details: Homo sapiens; for inhibition at 10 µM: COLO 205 (colon cancer), single dose 10 μM, read-out: Growth inhibition percentage (GI %)
HT29 = test: as above; type: cell-based, human; details: Homo sapiens; for inhibition at 10 µM: HT-29, HT29 (colon cancer), single dose 10 μM, read-out: Growth inhibition percentage (GI %)
SW-620 = test: as above; type: cell-based, human; details: Homo sapiens; for inhibition at 10 µM: SW-620 (colon cancer), single dose 10 μM, read-out: Growth inhibition percentage (GI %)
SF-539 = test: as above; type: cell-based; details: Homo sapiens; for inhibition at 10 µM: SF-539 (CNS cancer), single dose 10 μM, read-out: Growth inhibition percentage (GI %)
MALME-3M = test: as above; type: cell-based; details: Homo sapiens; for inhibition at 10 µM: MALME-3M (melanoma), single dose 10 μM, read-out: Growth inhibition percentage (GI %)
MDA-MB-435 = test: as above; type: cell-based; details: Homo sapiens; for inhibition at 10 µM: MDA-MB-435 (melanoma), single dose 10 μM, read-out: Growth inhibition percentage (GI %)
SK-MEL-2 = test: as above; type: cell-based; details: Homo sapiens; for inhibition at 10 µM: SK-MEL-2 (melanoma), single dose 10 μM, read-out: Growth inhibition percentage (GI %)
SK-MEL-28 = test: as above; type: cell-based; details: Homo sapiens; for inhibition at 10 µM: SK-MEL-28 (melanoma), single dose 10 μM, read-out: Growth inhibition percentage (GI %)
SK-MEL-5 = test: as above; type: cell-based; details: Homo sapiens; for inhibition at 10 µM: SK-MEL-5 (melanoma), single dose 10 μM, read-out: Growth inhibition percentage (GI %)
UACC-257 = test: as above; type: cell-based; details: Homo sapiens; for inhibition at 10 µM: UACC-257 (melanoma), single dose 10 μM, read-out: Growth inhibition percentage (GI %)
UACC-62 = test: as above; type: cell-based; details: Homo sapiens; for inhibition at 10 µM: UACC-62 (melanoma), single dose 10 μM, read-out: Growth inhibition percentage (GI %)
IGROV1 = test: as above; type: cell-based; details: Homo sapiens, IGROV-1; for inhibition at 10 µM: IGROV1 (ovarian cancer), single dose 10 μM, read-out: Growth inhibition percentage (GI %)
786-0 = test: as above; type: cell-based; details: Homo sapiens; for inhibition at 10 µM: 786-0, 786-0 (renal cancer), single dose 10 μM, read-out: Growth inhibition percentage (GI %)
A498 = test: as above; type: cell-based; details: Homo sapiens
ACHN = test: as above; type: cell-based; details: Homo sapiens; for inhibition at 10 µM: ACHN (renal cancer), single dose 10 μM, read-out: Growth inhibition percentage (GI %)
SN 12C = test: as above; type: cell-based; details: Homo sapiens, SN12C; for inhibition at 10 µM: SN 12C (renal cancer), single dose 10 μM, read-out: Growth inhibition percentage (GI %)
UO-31 = test: as above; type: cell-based; details: Homo sapiens; for inhibition at 10 µM: UO-31 (renal cancer), single dose 10 μM, read-out: Growth inhibition percentage (GI %)
MDA-MB-231/ATCC = test: as above; type: cell-based; details: Homo sapiens; for inhibition at 10 µM: MDA-MB-231/ATCC (breast cancer), single dose 10 μM, read-out: Growth inhibition percentage (GI %)
MDA-MB-468 = test: as above; type: cell-based; details: Homo sapiens; for inhibition at 10 µM: MDA-MB-468 (breast cancer), single dose 10 μM, read-out: Growth inhibition percentage (GI %)

Oc1ccccc1/C=N/Nc1nc(N/N=C/c2ccccc2O)nc(N2CCOCC2)n1 [compound 6a, 2-[(1e)-(2-{4-[(E)-2-[(2-Hydroxyphenyl)methylidene]hydrazin-1-yl]-6-(morpholin-4-yl)-1,3,5-triazin-2-yl}hydrazin-1-ylidene)methyl]phenol]
inhibition at 10 µM (CCRF-CEM): 57.6%
GI50 (CCRF-CEM; CCRF-CEM, five doses (0.01–100 μM), read-out: GI50): 530 nM
inhibition at 10 µM (K-562): 74.6%
GI50 (K-562; K-562, five doses (0.01–100 μM), read-out: GI50): 680 nM
inhibition at 10 µM (MOLT-4): 54.9%
GI50 (MOLT-4; MOLT-4, five doses (0.01–100 μM), read-out: GI50): 1550 nM
inhibition at 10 µM (SR): 84%
GI50 (SR; SR, five doses (0.01–100 μM), read-out: GI50): 320 nM
inhibition at 10 µM (EKVX): 77.8%
GI50 (EKVX; EKVX, five doses (0.01–100 μM), read-out: GI50): 3.28 µM
inhibition at 10 µM (HOP-92): 87.2%
GI50 (HOP-92; HOP-92, five doses (0.01–100 μM), read-out: GI50): 1650 nM
inhibition at 10 µM (NCI-H460): 67.5%
inhibition at 10 µM (OVCAR-3): 66.4%
inhibition at 10 µM (SF-268): 27.7%
inhibition at 10 µM (COLO 205): 52%
GI50 (COLO 205; COLO 205, five doses (0.01–100 μM), read-out: GI50): 5.53 µM
GI50 (HT29; HT-29, HT29, five doses (0.01–100 μM), read-out: GI50): 5.89 µM
inhibition at 10 µM (HT29): 65.8%
GI50 (SW-620; SW-620, SW-620, five doses (0.01–100 μM), read-out: GI50): 1780 nM
inhibition at 10 µM (SW-620): 61.5%
inhibition at 10 µM (SF-539): 48.2%
GI50 (SF-539; SF-539, five doses (0.01–100 μM), read-out: GI50): 7.29 µM
inhibition at 10 µM (MALME-3M): 47.4%
GI50 (MALME-3M; MALME-3M, five doses (0.01–100 μM), read-out: GI50): 8.69 µM
inhibition at 10 µM (MDA-MB-435): 41.1%
GI50 (MDA-MB-435; MDA-MB-435, five doses (0.01–100 μM), read-out: GI50): 9.53 µM
inhibition at 10 µM (SK-MEL-2): 28%
GI50 (SK-MEL-2; SK-MEL-2, five doses (0.01–100 μM)): 6.06 µM
inhibition at 10 µM (SK-MEL-28): 72%
GI50 (SK-MEL-28; SK-MEL-28, five doses (0.01–100 μM), read-out: GI50): 3.2 µM
inhibition at 10 µM (SK-MEL-5): 34.2%
GI50 (SK-MEL-5; SK-MEL-5, five doses (0.01–100 μM), read-out: GI50): 5.86 µM
inhibition at 10 µM (UACC-257): 46.7%
GI50 (UACC-257; UACC-257, five doses (0.01–100 μM), read-out: GI50): 6.53 µM
inhibition at 10 µM (UACC-62): 11.2%
GI50 (UACC-62; UACC-62, five doses (0.01–100 μM), read-out: GI50): 2450 nM
inhibition at 10 µM (IGROV1): 63%
GI50 (IGROV1; IGROV1, five doses (0.01–100 μM), read-out: GI50): 970 nM
inhibition at 10 µM (786-0): 69.7%
GI50 (786-0; 786-0, five doses (0.01–100 μM), read-out: GI50): 710 nM
GI50 (A498; A498, five doses (0.01–100 μM), read-out: GI50): 1090 nM
inhibition at 10 µM (ACHN): 71.9%
GI50 (ACHN; ACHN, five doses (0.01–100 μM), read-out: GI50): 1580 nM
inhibition at 10 µM (SN 12C): 72.8%
GI50 (SN 12C; SN 12C, five doses (0.01–100 μM), read-out: GI50): 18.3 µM
inhibition at 10 µM (UO-31): 80.2%
GI50 (UO-31; UO-31, five doses (0.01–100 μM), read-out: GI50): 370 nM
GI50 (MDA-MB-231/ATCC; MDA-MB-231/ ATCC, five doses (0.01–100 μM), read-out: GI50): 2420 nM
inhibition at 10 µM (MDA-MB-231/ATCC): 63.7%
inhibition at 10 µM (MDA-MB-468): 60.8%
GI50 (MDA-MB-468; MDA-MB-468, five doses (0.01–100 μM), read-out: GI50): 4.11 µM

Brc1ccccc1/C=N/Nc1nc(N/N=C/c2ccccc2Br)nc(N2CCOCC2)n1 [compound 6b, 2,4-Bis[(E)-2-[(2-bromophenyl)methylidene]hydrazin-1-yl]-6-(morpholin-4-yl)-1,3,5-triazine]
inhibition at 10 µM (CCRF-CEM): 19.9%
inhibition at 10 µM (K-562): 5.94%
inhibition at 10 µM (MOLT-4): 27.4%
inhibition at 10 µM (SR): 36.1%
inhibition at 10 µM (EKVX): 19.8%
inhibition at 10 µM (HOP-92): -12.3%
inhibition at 10 µM (NCI-H460): -2.92%
inhibition at 10 µM (OVCAR-3): 14.8%
inhibition at 10 µM (SF-268): -2.5%
inhibition at 10 µM (COLO 205): 13.9%
inhibition at 10 µM (HT29): 26%
inhibition at 10 µM (SW-620): 3.31%
inhibition at 10 µM (SF-539): -4.64%
inhibition at 10 µM (MALME-3M): -42.9%
inhibition at 10 µM (MDA-MB-435): 2.29%
inhibition at 10 µM (SK-MEL-2): 3.71%
inhibition at 10 µM (SK-MEL-28): 0.72%
inhibition at 10 µM (SK-MEL-5): 30.4%
inhibition at 10 µM (UACC-257): -3.93%
inhibition at 10 µM (UACC-62): -2.17%
inhibition at 10 µM (IGROV1): 10.3%
inhibition at 10 µM (786-0): 38.7%
inhibition at 10 µM (A498; A498 (renal cancer), single dose 10 μM, read-out: Growth inhibition percentage (GI %)): 49.8%
inhibition at 10 µM (ACHN): 6.36%
inhibition at 10 µM (SN 12C): 1.16%
inhibition at 10 µM (UO-31): 21.4%
inhibition at 10 µM (MDA-MB-231/ATCC): -3.3%
inhibition at 10 µM (MDA-MB-468): 9.74%
